The subject of test [1] is CHX tumor cells. Description: Tumor development in xenografted nude mice (tumor size). It counts as in vivo, athymic nude mice. The note with it: RA 0.5 mg/ml, LDH-RA 50 μg/ml, every two weeks for 8 weeks; control tumor 30 mm after 8 weeks. Here is the method: (§1) The CHX tumor cells were collected at 1×10^7 cells/well and administered subcutaneously to the hind legs of athymic nude mice. Appearance of tumor mass was observed every week. Tumor masses appeared 3 weeks after the subcutaneous administration, and, when a tumor size was increased to 5 mm, one group of the mice was untreated (control group), and the other groups of the mice were treated as follows: a LDH-dose group with LDH (1 mg/ml), a RA-dose group with RA (0.5 mg/ml), and a LDH-RA dose group with LDH-RA (50 μg/ml). The LDH-dose group, the RA-dose group, and the LDH-RA dose group were further treated with LDH, RA, and LDH-RA, respectively, every two weeks for 8 weeks. Referring to FIG. 12, in the control group, a tumor size was increased to 30 mm after 8 weeks. […] In the RA-dose group, a tumor size was reduced by about 20%. In the LDH-RA dose group, a tumor size was reduced by 80% or more. After then, the mice were anesthetized. Tumor tissues were cut, fixed in formalin, and cut into sections (5 μm thick) on a microtome. The sections were stained with hematoxylin/eosin (H/E) and examined with a microscope (50× magnification), and the results are shown in FIG. 13. Referring to FIG. 13, in the control group, tumor masses were found in almost all tissues, thereby causing growth retardation of tumor, resulting in necrosis. […]

In test [2] the test system is CHX tumor cells. Kind of test: H/E staining of tumor tissues from xenografted nude mice. The note with it: RA 0.5 mg/ml, every two weeks for 8 weeks. Type of test: in vivo, athymic nude mice. Here is the method: as §1
For test [3], the system named is CHX tumor cells. Description: Activity of lactic acid dehydrogenase associated with apoptotic cell death. Type of test: cell-based. The note with it: 250 μg/ml of RA, 12 hours. The protocol: In order to evaluate an anticancer effect of a LDH-RA hybrid obtained according the present invention, activity of lactic acid dehydrogenase associated with apoptotic cell death was measured. For this, the CHX tumor cells were seeded into each well of a 96-well plate. The CHX tumor cells were divided into 6 groups: normal group with no treatment, LDH-dose group with 1,000 μg/ml of LDH, RA-dose group with 250 μg/ml of RA, LDH-RA low-dose group with 25 μg/ml of LDH-RA, LDH-RA mid-dose group with 50 μg/ml of LDH-RA, and LDH-RA high-dose group with 100 μg/ml of LDH-RA. All groups were cultured for 12 hours. 20 μl of pyruvate substrate (NADH 1 mg/ml) was added to each group, and the cultures were mixed at room temperature for 2 minutes and stirred at 37° C. for 30 minutes. 20 μl of a color reagent (Sigma 505-2) was added to each culture, and the resultant cultures were mixed at room temperature for 20 minutes. 100 μg of 0.4N NaOH was added to each culture, and the resultant cultures were mixed at room temperature for 15 minutes. Referring to FIG. 9, the activities of lactic acid dehydrogenase of the normal group, the LDH-dose group, and the RA-dose group were 6±1.5%, 13±2%, and 42±5%, respectively. The activities of lactic acid dehydrogenase of the LDH-RA low-dose group, the LDH-RA mid-dose group, and the LDH-RA high-dose group were 41±2%, 76±6%, and 86±5%, respectively. […]

For `CC1=C(/C=C/C(C)=C/C=C/C(C)=C/C(=O)O)C(C)(C)CCC1` [RA, retinoic acid], the “tumor size reduced by” value in the test on CHX tumor cells [1] is reported as “about 20%”. For the same molecule, the “reduction in tumor tissues (H/E staining)” value with CHX tumor cells [2] turned out to be 15%. In addition, in the test with CHX tumor cells [3], the “activity of lactic acid dehydrogenase” value was found to be 42±5%.
